The subject of series [1] is HeLa cells. In words: MTT assay, HeLa cells in normoxia. Format: cell-based. The conditions noted are these: 48 h. The source says: Combining the results on carbonic anhydrase inhibition and GQ thermal stabilisation, we selected the sulphonamides S-2,0, S-4,0, S-5,0 and the coumarins C-3,2, C-4,2, C-5,2 as the most promising MTDLs to be further investigated, since able to both efficiently suppress the activity of the hCAs IX/XII and stabilise GQ structures, in vitro. Moreover, given that crystals suitable for X-ray diffraction analyses had been successfully obtained for the human telomeric DNA GQ in complex with S-3,2, we also included such sulphonamide derivative in the subsequent studies. Thus, we assessed the cytotoxicity of the selected MTDLs on CA IX-positive HeLa cells, using the MTT assay.
HeLa cells were grown in Dulbecco’s Modified Eagle’s Medium supplemented with 10% FBS, 100 U/mL penicillin, and 100 μg/mL streptomycin, at 37 °C, in a 5% CO2/95% air atmosphere. Cells were sub-cultured at 90% confluence, in the split ratio 1:8, every 3–5 days. The MTDLs used in this study, as well as the CAIs S and C, were dissolved in DMSO at 40 mM (for the sulphonamides) or 10 mM (for the coumarins) concentration. As for berberine, a 50 mM stock solution in DMSO was prepared. Each tested compound was diluted in cell culture medium to the required concentration, immediately prior to use. As regards the experiments under hypoxic conditions, an 80 mM stock solution of CoCl2 was prepared in sterile distilled water and further diluted in medium to obtain the final desired concentrations.
For the MTT experiments in the presence of normal oxygen levels, HeLa cells were seeded in 96-well plates at a density of 15,000 cells per well (culture medium volume – 100 μL/well) and incubated at 37 °C, for 24 h. The medium was then removed, and HeLa were incubated, for 48 h, with fresh medium containing increasing concentrations of MTDLs, single-target-directed agents (berberine, S, and C) or vehicle (0.5% DMSO). The MTDL C-4,2 was also tested for 12 h. As for the co-treatments, cells were co-treated for 12 h with equimolar concentrations of berberine and C. As regards the MTT experiments under hypoxic conditions, HeLa cells were seeded in 96-well plates (8,000 cells per well) and incubated overnight, pre-treated with 50 μM cobalt (II) chloride hexahydrate (CoCl2) and then, for the following 12 h, either exposed to increasing concentrations of C-4,2 or vehicle (0.5% DMSO), or co-treated with equimolar concentrations of berberine and C. Each condition was assayed in triplicate. At the end of the treatments, 10 µL of MTT reagent were added to each well, at a final concentration of 0.5 mg/mL, and the plates were incubated at 37 °C for 4 h. To dissolve the resulting purple formazan crystals, 100 μL of the solubilisation solution were added into each well and the plates were allowed to stand overnight in the incubator (37 °C, 5% CO2/95% air). Finally, the optical density of the samples (at 570 nm) was measured on an ELx800 Absorbance Microplate Reader (BioTek Instruments, Inc., Winooski, VT, USA). The percentage (%) of cell survival for each condition was calculated by using the following equation: % cell survival=OD− OD0/ODCONTROL− OD0×100 where OD is the optical density of the sample, OD0 is the optical density of the background signal, and ODCONTROL is the optical density of the control sample (cells treated with vehicle, 0.5% DMSO). The concentration able to reduce by 50% the cellular viability (IC50) was calculated, for each investigated compound, using Prism 8.0.2 (GraphPad, San Diego, CA, USA) and plotting the percentage of cell survival versus the compound concentration (µM).

The subject of series [2] is Hairpin. In words: CD melting experiments, hairpin DNA duplex. The conditions noted are these: 2 molar equiv compound, T1/2 of DNA alone 66.0 °C.
Procedure: To evaluate the possible binding and stabilisation of double-stranded DNA, a 27-nt long hairpin-forming sequence (Hairpin) was employed.
In particular, the following DNA sequences were synthesised and employed for the experiments: d([sequence]) (c-Kit1), d([sequence]) (c-Myc), d([sequence]) (Tel23), and d([sequence]) (Hairpin). Oligonucleotides were dissolved in the proper buffer and their concentration was measured by UV absorption at 90 °C, as previously reported[80]^,[81]. To achieve the correct folding of the sequences, the DNA solutions were heated in a water bath at 90 °C for 5 min, and then allowed to cool slowly to room temperature overnight. Then, DNA samples were stored at 4 °C for 24 h, before data acquisition.
The samples were prepared by dissolving the oligonucleotides in 5 mM KH2PO4/K2HPO4 buffer (pH 7.0) containing 20 mM KCl (or LiCl in the case of c-Myc because of its high thermal stability). DNA concentrations of 20 µM for GQs and 30 µM for Hairpin were used. For each compound, a 10 mM stock solution in 100% DMSO was prepared. […] CD spectra were acquired at 20 and 100 °C, in the 230–320 nm wavelength range, averaged over three scans and subtracted of the buffer baseline. The scanning speed was set to 100 nm/min, with a 0.5 s response time, and 1 nm bandwidth. CD melting experiments were carried out in the 20–100 °C temperature range, with 1 °C/min heating rate, by following changes in the CD signal at the wavelengths of the maximum CD intensity (i.e. 263 nm for c-Kit1 and c-Myc, and 290 nm for Tel23). As for Hairpin, CD melting curves were recorded by following the changes in the CD signal at 252 nm (the wavelength of the minimum CD intensity). CD melting curves were normalised between 0 and 1. […] The ΔT1/2 values correspond to the difference in the T1/2 values of the nucleic acid structures in the presence and absence of the compounds. All experiments were performed in duplicate, and the reported values are the mean of the two measurements.
Series [3] relates to Tel23. In words: CD melting experiments, Tel23 GQ. The class given is binding, human. The note with it: 2 molar equiv compound, T1/2 of DNA alone 53.5 °C. The source says: (§1) The 21 synthesised MTDLs were screened for their ability to bind to and stabilise DNA GQ-forming sequences, compared to berberine, by CD experiments. Indeed, circular dichroism has shown to be outstandingly useful and informative for noncanonical nucleic acid secondary structures. For this purpose, a G-rich 23-nucleotide truncation (23-nt) of the human telomeric sequence (Tel23) and two G-rich motifs from the promoter regions of c-KIT (c-Kit1) and c-MYC (c-Myc) oncogenes were employed. First, the overall topology adopted by each DNA sequence in K^+-containing buffer was verified by CD spectra. […] GQ conformation (Figure S1, Supporting Information). On the other hand, c-Kit1 and c-Myc sequences adopted a parallel GQ conformation, showing a distinctive positive band at around 260 nm and a negative one at ∼240 nm in their CD spectra (Figures S2 and S3, Supporting Information).
(§2) Afterwards, the GQ-stabilising properties of the molecules were assessed by CD melting experiments, measuring the differences in the apparent melting temperatures of the DNA in the presence and absence of compounds (ΔT1/2) (Figures S4–S6 and Table S2, Supporting Information). […] This could be explained by considering the higher accessibility of the external G-tetrads in the case of parallel GQs compared to the hybrid one[52], which would allow the additional CAI moiety of conjugated compounds to be better accommodated in the binding site. […] . […] .

The test system of series [4] is c-Myc. In words: CD melting experiments, c-Myc GQ. Format: binding. The conditions noted are these: 1 molar equiv compound, T1/2 of DNA alone 70.0 °C.
Excerpt: as §1, §2

Series [5] concerns c-Kit1. In words: CD melting experiments, c-Kit1 GQ. The note with it: 2 molar equiv compound, T1/2 of DNA alone 55.0 °C. The class given is binding.
Excerpt: as §1, §2

Counter-ions that a name gives are not always drawn.

One may read the melting point as the temperature of the solid-liquid transition. Compound `COc1ccc2cc3[n+](cc2c1OCCn1cc(-c2ccc(S(N)(=O)=O)cc2)nn1)CCc1cc2c(cc1-3)OCO2` (as salt: phosphate) [Compound 26, 10-Methoxy-9–(2-(4–(4-sulfamoylphenyl)-1H-1,2,3-triazol-1-yl)ethoxy)-5,6-dihydro-[1,3]dioxolo[4,5-g]isoquinolino[3,2-a]isoquinolin-7-ium hexafluorophosphate] gave a melting point of 212 to 215 °C.
On to `COc1ccc2cc3[n+](cc2c1OCCn1cc(COc2ccc(S(N)(=O)=O)cc2)nn1)CCc1cc2c(cc1-3)OCO2` (as salt: phosphate) [Compound 27, 10-Methoxy-9–(2-(4-((4-sulfamoylphenoxy)methyl)-1H-1,2,3-triazol-1-yl)ethoxy)-5,6-dihydro-[1,3]dioxolo[4,5-g]isoquinolino[3,2-a]isoquinolin-7-ium hexafluorophosphate], for which the melting point was 183 to 185 °C.
The same measure, in the same setting: as for `COc1ccc2cc3[n+](cc2c1OCCCn1cc(-c2ccc(S(N)(=O)=O)cc2)nn1)CCc1cc2c(cc1-3)OCO2` (as salt: phosphate) [Compound 28, 10-Methoxy-9–(3-(4–(4-sulfamoylphenyl)-1H-1,2,3-triazol-1-yl)propoxy)-5,6-dihydro-[1,3]dioxolo[4,5-g]isoquinolino[3,2-a]isoquinolin-7-ium hexafluorophosphate], the figure is 205 to 208 °C; as for `COc1ccc2cc3[n+](cc2c1OCCCn1cc(COc2ccc(S(N)(=O)=O)cc2)nn1)CCc1cc2c(cc1-3)OCO2` (as salt: phosphate) [Compound 29, 10-Methoxy-9–(3-(4-((4-sulfamoylphenoxy)methyl)-1H-1,2,3-triazol-1-yl)propoxy)-5,6-dihydro-[1,3]dioxolo[4,5-g]isoquinolino[3,2-a]isoquinolin-7-ium hexafluorophosphate], 120 to 122 °C.
The same measure, in the same setting: as for `COc1ccc2cc3[n+](cc2c1OCCCCn1cc(COc2ccc(S(N)(=O)=O)cc2)nn1)CCc1cc2c(cc1-3)OCO2` (as salt: phosphate) [Compound 31, 10-Methoxy-9–(4-(4-((4-sulfamoylphenoxy)methyl)-1H-1,2,3-triazol-1-yl)butoxy)-5,6-dihydro-[1,3]dioxolo[4,5-g]isoquinolino[3,2-a]isoquinolin-7-ium hexafluorophosphate], the figure is 165 to 168 °C; as for `COc1ccc2cc3[n+](cc2c1OCCCCCn1cc(-c2ccc(S(N)(=O)=O)cc2)nn1)CCc1cc2c(cc1-3)OCO2` (as salt: phosphate) [Compound 32, 10-Methoxy-9-((5–(4-(4-sulfamoylphenyl)-1H-1,2,3-triazol-1-yl)pentyl)oxy)-5,6-dihydro-[1,3]dioxolo[4,5-g]isoquinolino[3,2-a]isoquinolin-7-ium hexafluorophosphate], 200 to 202 °C; as for `COc1ccc2cc3[n+](cc2c1OCCCCCn1cc(COc2ccc(S(N)(=O)=O)cc2)nn1)CCc1cc2c(cc1-3)OCO2` (as salt: phosphate) [Compound 33, 10-Methoxy-9-((5–(4-((4-sulfamoylphenoxy)methyl)-1H-1,2,3-triazol-1-yl)pentyl)oxy)-5,6-dihydro-[1,3]dioxolo[4,5-g]isoquinolino[3,2-a]isoquinolin-7-ium hexafluorophosphate], 168 to 171 °C.
In the case of `COc1ccc2cc3[n+](cc2c1OCCCn1cc(COc2ccc4ccc(=O)oc4c2)nn1)CCc1cc2c(cc1-3)OCO2` (as salt: phosphate) [Compound 34, 10-Methoxy-9–(3-(4-(((2-oxo-2H-chromen-7-yl)oxy)methyl)-1H-1,2,3-triazol-1-yl)propoxy)-5,6-dihydro-[1,3]dioxolo[4,5-g]isoquinolino[3,2-a]isoquinolin-7-ium hexafluorophosphate], the melting point turned out to be 140 °C.
The same measure, in the same setting: as for `COc1ccc2cc3[n+](cc2c1OCCCn1cc(CCOc2ccc4ccc(=O)oc4c2)nn1)CCc1cc2c(cc1-3)OCO2` (as salt: phosphate) [Compound 35, 10-Methoxy-9–(3-(4–(2-((2-oxo-2H-chromen-7-yl)oxy)ethyl)-1H-1,2,3-triazol-1-yl)propoxy)-5,6-dihydro-[1,3]dioxolo[4,5-g]isoquinolino[3,2-a]isoquinolin-7-ium hexafluorophosphate], the figure is 130 to 131 °C; as for `COc1ccc2cc3[n+](cc2c1OCCCCn1cc(CCOc2ccc4ccc(=O)oc4c2)nn1)CCc1cc2c(cc1-3)OCO2` (as salt: phosphate) [Compound 38, 10-Methoxy-9–(4-(4–(2-((2-oxo-2H-chromen-7-yl)oxy)ethyl)-1H-1,2,3-triazol-1-yl)butoxy)-5,6-dihydro-[1,3]dioxolo[4,5-g]isoquinolino[3,2-a]isoquinolin-7-ium hexafluorophosphate], 185 to 186 °C; as for `COc1ccc2cc3[n+](cc2c1OCc1cn(-c2cccc(S(N)(=O)=O)c2)nn1)CCc1cc2c(cc1-3)OCO2` (as salt: phosphate) [Compound 40, 10-Methoxy-9-((1–(3-sulfamoylphenyl)-1H-1,2,3-triazol-4-yl)methoxy)-5,6-dihydro-[1,3]dioxolo[4,5-g]isoquinolino[3,2-a]isoquinolin-7-ium hexafluorophosphate], 195 to 198 °C.
On the same count and under the same terms, as for `COc1ccc2cc3[n+](cc2c1OCc1cn(CCCOc2ccc4ccc(=O)oc4c2)nn1)CCc1cc2c(cc1-3)OCO2` (as salt: phosphate) [Compound 42, 10-Methoxy-9-((1–(3-((2-oxo-2H-chromen-7-yl)oxy)propyl)-1H-1,2,3-triazol-4-yl)methoxy)-5,6-dihydro-[1,3]dioxolo[4,5-g]isoquinolino[3,2-a]isoquinolin-7-ium hexafluorophosphate], the figure is 117 to 118 °C.
Broadly, the IC50 is the concentration at which inhibition is half-maximal. As for `COc1ccc2cc3[n+](cc2c1OC)CCc1cc2c(cc1-3)OCO2` [Berberine, berberine, reference compound], in series [1] (increasing concentrations), the “effect on HeLa cell viability (in words)” value is recorded as “good dose-dependent cytotoxic effect”. The IC50 in series [1] (Homo sapiens, normoxia, read-out: IC50 (50% of cell viability reduction), MTT assay) came to 75 µM. In series [2], the “ΔT1/2 Hairpin” value is “+0.2 °C”. In addition, the “ΔT1/2 Tel23” value in series [3] worked out at 9.5 °C. Besides, in series [4], the “ΔT1/2 c-Myc” value is 12.0 °C. Moreover, the “ΔT1/2 c-Kit1” value in series [5] worked out at 13.0 °C.

The record behind these values is paper PMC11195807, “Development of a multi-targeted chemotherapeutic approach based on G-quadruplex stabilisation and carbonic anhydrase inhibition” (Journal of Enzyme Inhibition and Medicinal Chemistry, 2024).
